Laboratory results published in the supplement of paper PMC10331698.
± gives the standard deviation of the averaged measurements.

Tests used:
Test in all cases: level (log10 ratio to DMSO vehicle control); higher = higher biomarker level / cell amount than vehicle control
Settings in all cases: in DMSO
[1] = compound: CNS(=O)(=O)C(F)(F)C(F)(F)C(F)(F)C(F)(F)C(F)(F)C(F)(F)C(F)(F)C(F)(F)F [N-Methylperfluorooctanesulfonamide]
Protocol: (§1)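 BioMAP Diversity Plus panel of 12 human primary cell co-culture systems (3C, 4H, LPS, SAg, BT, BF4T, BE3C, CASM3C, HDF3CGF, KF3CT, MyoF, Mphg). Compounds were added 1 h before stimulation and left for 24 h (MyoF 48 h; BT 72 h for soluble read-outs or 6 d for IgG). Biomarkers were read by ELISA, cytotoxicity by SRB, PBMC viability and proliferation by Alamar Blue. Each well value was divided by the mean of 8 DMSO control wells on the same plate and log10 transformed; duplicate blinded samples were tested at 4 concentrations.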

[2] = compound: O=P(O)(O)CCC(F)(F)C(F)(F)C(F)(F)C(F)(F)C(F)(F)C(F)(F)C(F)(F)C(F)(F)F [((Perfluorooctyl)ethyl)phosphonic acid]
Protocol: as §1

Azathioprine = compound: Cn1cnc([N+](=O)[O-])c1Sc1ncnc2[nH]cnc12 [Azathioprine]
Protocol: as §1

[3] = compound: CC(C)(C)C(=O)CC(=O)C(F)(F)C(F)(F)C(F)(F)F [(Heptafluorobutanoyl)pivaloylmethane]
Protocol: as §1

[4] = compound: O=C(O)CCC(F)(F)C(F)(F)C(F)(F)C(F)(F)C(F)(F)F [2H,2H,3H,3H-Perfluorooctanoic acid]
Protocol: as §1

[5] = compound: FC(F)(F)C(F)(F)C(F)(F)C(F)(F)C(F)(F)C(F)(F)C(F)(F)CCI [1-Iodo-1H,1H,2H,2H-perfluorononane]
Protocol: as §1

Test System | level (log10) ([1]; 6700 nM) | level (log10) ([1]; 20000 nM) | level (log10) ([1]; 60000 nM) | level (log10) ([2]; 6700 nM) | level (log10) ([2]; 20000 nM) | level (log10) ([2]; 60000 nM) | level (log10) (Azathioprine; 1400 nM) | level (log10) (Azathioprine; 4200 nM) | level (log10) (Azathioprine; 13000 nM) | level (log10) (Azathioprine; 38000 nM) | level (log10) ([3]; 6700 nM) | level (log10) ([3]; 20000 nM) | level (log10) ([3]; 60000 nM) | level (log10) ([4]; 6700 nM) | level (log10) ([4]; 20000 nM) | level (log10) ([4]; 60000 nM) | level (log10) ([5]; 6700 nM) | level (log10) ([5]; 20000 nM)
CASM3C:HLA-DR | -0.0525 ± 0.039 | -0.0875 ± 0.011 | -0.0315 ± 0.079 | -0.0265 ± 0.012 | -0.048 | -0.03 ± 0.081 | -0.0165 ± 0.0021 | -0.0115 ± 0.026 | -0.0405 ± 0.011 | -0.055 ± 0.031 | 0.011 ± 0.0014 | 0.0005 ± 0.0092 | 0.0255 ± 0.0035 | 0.004 ± 0.0057 | -0.026 ± 0.021 | -0.014 | 0.0055 ± 0.0064 | -0.007 ± 0.0071
HDF3CGF:M-CSF | 0.0055 ± 0.018 | 0.006 ± 0.025 | -0.001 ± 0.027 | 0.0235 ± 0.016 | -0.009 ± 0.0028 | -0.113 ± 0.016 | -0.0255 ± 0.039 | -0.018 ± 0.042 | -0.0595 ± 0.011 | -0.184 ± 0.025 | 0.026 ± 0.014 | 0.03 ± 0.038 | 0 ± 0.028 | -0.044 ± 0.089 | -0.067 ± 0.086 | -0.051 ± 0.12 | -0.0895 ± 0.049 | -0.12 ± 0.064
KF3CT:IL-1alpha | 0.0585 ± 0.026 | 0.0435 ± 0.026 | 0.051 ± 0.016 | 0.0025 ± 0.019 | 0.0035 ± 0.011 | 0.0025 ± 0.029 | -0.015 ± 0.0099 | 0.01 ± 0.013 | 0.0115 ± 0.005 | 0.035 ± 0.0042 | 0.02 ± 0.021 | 0.015 ± 0.013 | 0.02 ± 0.023 | 0.007 ± 0.0085 | -0.0055 ± 0.016 | -0.0345 ± 0.029 | -0.01 ± 0.0071 | 0.019 ± 0.047
BE3C:SRB | -0.0085 ± 0.00071 | -0.014 ± 0.0085 | 0.0005 ± 0.029 | -0.004 | -0.011 ± 0.0085 | 0.0015 ± 0.015 | 0.013 ± 0.016 | -0.005 | -0.0095 ± 0.0078 | -0.0045 ± 0.0092 | -0.0035 ± 0.0035 | -0.0035 ± 0.00071 | -0.0075 ± 0.019 | 0.003 ± 0.0028 | -0.0015 ± 0.005 | 0.012 ± 0.018 | -0.0035 ± 0.0021 | 0.0005 ± 0.00071
lMphg:M-CSF | -0.046 ± 0.0028 | -0.0305 ± 0.016 | -0.0015 ± 0.021 | -0.0235 ± 0.0064 | -0.039 ± 0.0057 | -0.0405 ± 0.0078 | 0.004 ± 0.018 | -0.0045 ± 0.0021 | -0.032 ± 0.011 | -0.0885 ± 0.0064 | -0.0265 ± 0.039 | -0.027 ± 0.051 | -0.0315 ± 0.032 | -0.0155 ± 0.0021 | 0.0035 ± 0.0064 | -0.046 ± 0.014 | -0.023 ± 0.037 | -0.015 ± 0.0014
KF3CT:MMP-9 | 0.0055 ± 0.005 | -0.0495 ± 0.0035 | -0.098 ± 0.027 | -0.0095 ± 0.0064 | -0.027 ± 0.0042 | -0.0365 ± 0.013 | -0.008 ± 0.011 | 0.0015 ± 0.0064 | -0.0255 ± 0.0064 | -0.0375 ± 0.011 | -0.018 ± 0.0099 | -0.0175 ± 0.023 | -0.014 ± 0.041 | -0.0235 ± 0.021 | -0.018 ± 0.02 | 0.026 ± 0.0057 | -0.006 ± 0.0042 | 0.0165 ± 0.013
BE3C:MMP-9 | -0.094 ± 0.0014 | -0.11 ± 0.0057 | -0.102 ± 0.0064 | -0.0155 ± 0.026 | -0.006 ± 0.044 | 0.014 ± 0.016 | 0.0075 ± 0.046 | 0.0285 ± 0.04 | -0.0135 ± 0.03 | -0.0485 ± 0.028 | -0.0145 ± 0.018 | 0.004 ± 0.0014 | -0.032 ± 0.04 | -0.0025 ± 0.025 | -0.003 ± 0.014 | 0.0195 ± 0.033 | -0.0045 ± 0.013 | -0.0045 ± 0.026
lMphg:CCL3/MIP-1alpha | -0.023 ± 0.0014 | 0.0105 ± 0.029 | 0.034 ± 0.033 | -0.0425 ± 0.026 | -0.0475 ± 0.0021 | -0.039 ± 0.0085 | -0.0005 ± 0.00071 | -0.0235 ± 0.021 | -0.0225 ± 0.03 | -0.0975 ± 0.029 | -0.011 ± 0.021 | -0.0185 ± 0.013 | -0.067 ± 0.11 | 0.032 ± 0.052 | 0.0625 ± 0.081 | 0.0765 ± 0.053 | -0.001 | 0.045 ± 0.033
HDF3CGF:CXCL10/IP-10 | -0.102 ± 0.064 | -0.099 ± 0.071 | -0.0875 ± 0.022 | 0.077 ± 0.0014 | 0.0255 ± 0.005 | -0.0375 ± 0.005 | -0.0225 ± 0.022 | -0.037 ± 0.044 | -0.0825 ± 0.012 | -0.152 ± 0.0078 | -0.0195 ± 0.0078 | -0.0105 ± 0.012 | -0.076 ± 0.023 | -0.0015 ± 0.0092 | 0.02 ± 0.0014 | -0.0205 ± 0.054 | -0.0265 ± 0.0035 | -0.0645 ± 0.03
KF3CT:TIMP-2 | 0.0185 ± 0.0035 | 0.022 ± 0.024 | 0.008 ± 0.0028 | 0.0015 ± 0.0021 | 0.013 ± 0.018 | -0.0345 ± 0.005 | -0.041 ± 0.013 | 0 ± 0.021 | 0.0385 ± 0.0078 | 0.0585 ± 0.011 | 0.001 ± 0.021 | 0.002 ± 0.014 | -0.015 ± 0.0014 | -0.011 | -0.02 ± 0.024 | 0.015 ± 0.0099 | 0.0145 ± 0.03 | -0.0035 ± 0.0064
MyoF:PAI-I | 0.0005 ± 0.022 | -0.0145 ± 0.012 | 0.0255 ± 0.0092 | -0.0215 ± 0.0092 | -0.0075 ± 0.0064 | -0.0285 ± 0.035 | -0.004 ± 0.0085 | -0.0025 ± 0.0064 | -0.0015 ± 0.005 | 0 ± 0.0085 | 0.009 ± 0.016 | 0.009 ± 0.024 | 0.0195 ± 0.018 | -0.009 ± 0.0028 | -0.0155 ± 0.005 | -0.0025 ± 0.005 | -0.002 ± 0.02 | -0.0025 ± 0.0035
3C:CD62E/E-Selectin | -0.011 ± 0.025 | 0.01 ± 0.023 | -0.072 ± 0.011 | -0.011 ± 0.025 | -0.032 ± 0.021 | -0.056 ± 0.011 | -0.0005 ± 0.012 | -0.013 ± 0.03 | -0.033 ± 0.0099 | -0.0015 ± 0.0078 | -0.0155 ± 0.0092 | -0.022 ± 0.0099 | -0.003 ± 0.017 | -0.01 ± 0.038 | -0.015 ± 0.058 | 0.006 ± 0.033 | -0.0135 ± 0.0035 | -0.028 ± 0.014
HDF3CGF:Collagen I | -0.0245 ± 0.012 | -0.041 ± 0.038 | 0.0085 ± 0.066 | -0.041 | -0.116 ± 0.015 | -0.148 ± 0.1 | -0.0185 ± 0.005 | -0.059 ± 0.044 | -0.0475 ± 0.028 | -0.034 ± 0.064 | -0.0025 ± 0.029 | -0.044 ± 0.04 | 0.0405 ± 0.044 | 0.0065 ± 0.079 | -0.004 ± 0.078 | 0.0195 ± 0.14 | 0.0105 ± 0.042 | -0.011 ± 0.058
HDF3CGF:CD54/ICAM-1 | -0.002 ± 0.0028 | -0.0075 ± 0.019 | -0.0845 ± 0.0035 | -0.009 ± 0.0099 | -0.0235 ± 0.015 | -0.0625 ± 0.028 | -0.0065 ± 0.011 | 0.0045 ± 0.0078 | 0.0015 ± 0.019 | -0.0195 ± 0.012 | 0 ± 0.0057 | -0.0075 ± 0.013 | 0.0065 ± 0.00071 | -0.0095 ± 0.0064 | -0.0215 ± 0.019 | -0.036 ± 0.023 | -0.0105 ± 0.016 | 0.0095 ± 0.0035
MyoF:alpha-SM Actin | -0.021 ± 0.068 | -0.008 ± 0.042 | 0.024 ± 0.059 | 0.0005 ± 0.046 | -0.001 ± 0.038 | 0.004 ± 0.031 | 0.037 ± 0.095 | 0.039 ± 0.071 | 0.002 ± 0.078 | -0.0365 ± 0.1 | -0.006 ± 0.05 | -0.002 ± 0.034 | -0.0215 ± 0.0021 | 0.048 ± 0.024 | 0.017 ± 0.013 | 0.0205 ± 0.061 | -0.016 ± 0.02 | -0.0435 ± 0.0035
HDF3CGF:Proliferation 72hr | -0.001 ± 0.073 | 0.0205 ± 0.073 | -0.056 ± 0.095 | 0.017 ± 0.065 | -0.0105 ± 0.087 | -0.374 ± 0.034 | -0.0455 ± 0.079 | -0.061 ± 0.035 | -0.057 ± 0.0057 | -0.162 ± 0.027 | -0.0465 ± 0.028 | 0.097 ± 0.031 | 0.094 ± 0.014 | -0.002 ± 0.054 | 0.007 ± 0.033 | 0.023 ± 0.018 | -0.689 ± 0.0092 | -0.815 ± 0.25
